Among the data in PubChem BioAssay (NCI) are GI50 and TGI values, retold here.

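Values below derive from 48-hour exposures of cells grown in 96-well plates, with endpoints linearly interpolated between the two concentrations bracketing the appropriate inhibition level. Abbreviation: GI50, concentration required for 50% inhibition of growth. At the TGI there is no net growth.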 Where only a bound is given, the exact number is not on record here.

What all share (assay): inhibition of tumour cell growth, NCI panel, 48 h
Test [1] relates to CAKI-1 renal.
Test [2] relates to KM12 colon.
Test [3] relates to 786-0 renal.
The subject of test [4] is SK-MEL-2 melanoma.
The subject of test [5] is UACC-257 melanoma.
Test [6] relates to SF-539 CNS.
Test [7] deals with COLO 205 colon.
Test [8] concerns MDA-MB-435.
Test [9] relates to IGROV1 ovarian.
Test [10] concerns SN12C renal.

Regarding `CCOC(=O)c1c(C)n(Cc2ccc(OC)cc2)c2c1cc(O)c1[nH]c3c(c12)CCCC3`, the GI50 is 16.4 µM in [1]; 2.04 µM in [2]; 13.1 µM in [3]; 2.39 µM in [4]; 1.77 µM in test [5]; 2760 nM in [6]. The GI50 in test [7] is 86.5 nM; in test [8], 15.9 µM; in [9] it was 3.76 µM; in test [10] it was 7.79 µM. Moreover, the TGI in test [1] came to 54.9 µM; in test [2] it was 5.43 µM; in test [3] it was 49.4 µM; in test [4] it was 7.05 µM; in test [5], 9.66 µM; in test [6] it was 7.07 µM. The TGI in test [7] worked out at 8.35 µM; in test [8], 82 µM; in [9], 20.5 µM; in [10], 28.9 µM.
`CC(C)CSc1nc(Nc2ccccc2)c(C#N)c(-c2ccc(F)cc2)n1`: the GI50 in [1] was 0.486 µM; in [2] it was 48.2 µM; in test [3] it was 1.9 µM; in [4], 13.7 µM; in test [5], 10.3 µM; in [6], 2500 nM. Also, the GI50 was 1860 nM in [7], 13 µM in test [8], 0.702 µM in test [9] and 0.597 µM in test [10]. For the same molecule, the TGI in test [1] was 2.46 µM; in test [2], greater than 100 µM; in test [3], 5.19 µM; in [4], 30.2 µM; in [5], 33.3 µM; in test [6], 13.3 µM. For the same molecule, the TGI stood at 20.1 µM in [7], 42.2 µM in test [8], 10 µM in test [9] and 3.14 µM in test [10].
For the molecule `CN(C)C(=S)SN(C)C(=O)Nc1ccccc1`, the TGI in test [1] was 60.5 µM; in test [2], 53.8 µM; in test [3], greater than 74.7 µM; in test [4], greater than 100 µM; in [5], greater than 63.1 µM; in [6], greater than 81.1 µM. The TGI was greater than 100 µM in [7], greater than 72.5 µM in test [8], greater than 100 µM in test [9] and 89.3 µM in [10].
With `Cn1cc(-c2csc(-c3cccc(F)c3)n2)c2cccnc21`, the GI50 in test [1] was 16.2 µM; in test [2], 16 µM; in test [3], 16.1 µM; in test [4] it was 23.5 µM; in test [5] it was 21.8 µM; in [6], 15500 nM. Also, the GI50 is 15700 nM in test [7], 14.4 µM in [8], 21.2 µM in [9] and 15.6 µM in test [10]. For the same molecule, the TGI in [1] came out at 40.5 µM; in test [2] it was 29.5 µM; in test [3] it was 30.4 µM; in test [4], 55.2 µM; in test [5], 42.6 µM; in test [6], 30.1 µM. Besides, the TGI in test [7] was determined as 30.1 µM; in test [8], 33.1 µM; in [9], 47.5 µM; in test [10], 29.5 µM.
`COc1ccc(-c2cc3c(nn2)-c2ccccc2C3=O)cc1`: the GI50 in test [1] was greater than 100 µM; in test [2], 47.7 µM; in [3] it was greater than 100 µM; in test [5] it was greater than 100 µM; in [6] it was greater than 100000 nM; in test [7], greater than 100000 nM. For the same molecule, the GI50 in test [8], in test [9] and in test [10] was greater than 100 µM throughout. In addition, the TGI in test [1] is greater than 100 µM; in test [2] it was greater than 100 µM; in test [3] it was greater than 100 µM; in [4] it was greater than 10 µM; in test [5] it was greater than 100 µM; in [6] it was greater than 100 µM. Moreover, the TGI in test [7], in [8], in [9] and in [10] was greater than 100 µM in each case.
For the molecule `CC(C)CC(N)C(=O)O` (centres undefined), the TGI in test [1], in [2], in test [3], in test [4], in test [5] and in test [6] was greater than 100 µM in each case. For the same molecule, the TGI in test [7], in [8], in test [9] and in [10] was greater than 100 µM throughout.
As for `N#C/C(C(=S)Nc1ccccc1)=C1/NN=C2c3ccccc3C(=O)NN21`, the GI50 in test [1] was 34.7 µM; in [2] it was 16.1 µM; in test [3], 38 µM; in test [4], 21 µM; in test [5] it was 39 µM; in test [6], 18700 nM. Moreover, the GI50 in test [7] was 24900 nM; in [8] it was 7.8 µM; in test [9], 35.6 µM; in [10], 40.7 µM. Moreover, the TGI in test [1] was greater than 100 µM; in test [2] it was 58.4 µM; in test [3], greater than 100 µM; in [4] it was 53.8 µM; in test [5] it was greater than 100 µM; in [6], 40.9 µM. The TGI is greater than 100 µM in test [7], 24.3 µM in test [8], greater than 100 µM in test [9] and greater than 100 µM in test [10].
With `O=C(O)c1cc(N=Nc2ccc([As](=O)(O)O)cc2)ccc1O`, the TGI in test [1], in test [2], in [3], in [4], in test [5] and in test [6] was greater than 100 µM throughout. Besides, the TGI in test [7], in [8], in test [9] and in test [10] was greater than 100 µM in each case.
Consider `CCCCC/C=C/C/C=C/CCCCCCCC1=NC(C)(C)CN1C(C)C`, for which the GI50 in [1] was 1.3 µM; in test [2], 1.61 µM; in [3], 2.24 µM; in test [4] it was 1.85 µM; in test [5], 1.72 µM; in [6], 1820 nM. Besides, the GI50 in [7] was 1470 nM; in [8], 1.5 µM; in test [9], 1.23 µM; in [10], 1.71 µM. The TGI in test [1] was 2.57 µM; in test [2] it was 2.96 µM; in test [3] it was 5.12 µM; in test [4], 3.35 µM; in test [5] it was 3.2 µM; in test [6] it was 3.3 µM. Besides, the TGI in test [7] came to 2.79 µM; in test [8] it was 2.82 µM; in test [9], 2.47 µM; in test [10], 4.08 µM.
